Drawing on paper PMC12040169 (PLOS Biology, 2025), this text covers viability for 79 compounds.

The data set in a line: in vitro. As to conditions: human, hela cells, % viability.
In general, viability refers to a read-out of living cells in per cent, often relative to untreated cells. With `COc1c(O)ccc(/C=N/NC(=O)COc2c(Br)cc(Br)cc2Br)c1[N+](=O)[O-]` [CBK261957], the viability at 28.5 h, 10 µM turned out to be 95.9%.

On to `C[N+](C)(C)C1=C([O-])c2ccccc2C1=O` [CBK009824], for which the viability at 28.5 h, 10 µM came to 92.7%. Turning to `COC(=O)c1c(NC(=O)C(Sc2ccccc2)c2ccccc2)sc2c1CCC(C(C)(C)C)C2` (stereo not shown) [CBK262603], the viability at 28.5 h, 10 µM was found to be 105%. On to `O=C(CN1CCOCC1)c1ccc(O)o1` [CBK019286], for which the viability at 28.5 h, 10 µM worked out at 95.4%. Regarding `CCOC(=O)CC(=O)CSc1nc(-c2cccnc2)ccc1C#N` [CBK267456], the viability at 28.5 h, 10 µM was found to be 89.6%. As for `CC1=C[C@@H](CNC(=O)NC2CCCCC2)[C@H](C(C)C)C[C@H]1CC(=O)O` [CBK289211], the viability at 28.5 h, 10 µM was 80.3%.

Turning to `CS(=O)(=O)c1ccc(-n2cc(CN3CCC(Sc4ccccc4)CC3)nn2)cc1` [CBK149468], the viability at 28.5 h, 10 µM came out at 101%. For the compound `C=CCN(C)C(=O)[C@H]1C[C@@H](O)[C@H](O)[C@@H]2N=C(Nc3cc(C)cc(C)c3)S[C@@H]21` [CBK288948], the viability at 28.5 h, 10 µM worked out at 94.2%. As for `CN1CCC(N(C)C(=O)NCc2ccc(Cl)c(Cl)c2)C1` (stereo not shown) [CBK155996], the viability at 28.5 h, 10 µM turned out to be 92.4%. For `Cc1nc2nc(N)nn2c(C)c1CCC(=O)NCc1cccc(Cl)c1` [CBK304993], the viability at 28.5 h, 10 µM turned out to be 87.5%.

As to `CN1CCN(CC(=O)Nc2cc(N3CCOCC3)ccc2[N+](=O)[O-])CC1` [CBK047475], the viability at 28.5 h, 10 µM was found to be 92.9%.

In the case of `C/C(=N\NC(=O)c1ccccc1I)c1cccc(N)c1` [CBK260935], the viability at 28.5 h, 10 µM was 107%. Take `OCc1ccccc1-c1cnc(N2CCOCC2)c2nccn12` [CBK091265]: the viability at 28.5 h, 10 µM was 110%. The result for `COc1ccc(Cl)cc1NC(=O)NC(=O)C1CCN(CCOc2cccc3ccccc23)CC1` [CBK035116] reads 90.9%; that for `Cc1nc(-c2ccccc2)cc([C@H]2CN3CC[C@H]2C[C@@H]3CNS(C)(=O)=O)n1` [CBK289124], 114%; that for `COc1ccc(Cc2nc(C3CCC3)n(CC3COCCO3)n2)cc1` (stereo not shown) [CBK307378], 87.8%. For the compound `Cc1noc(C)c1CC(=O)NC(C)CCc1ccc(F)cc1` (stereo not shown) [CBK281511], the viability at 28.5 h, 10 µM was found to be 89.8%. Take `Cc1nc2ccc(C(=O)NCCCc3ccccn3)cc2s1` [CBK282478]: the viability at 28.5 h, 10 µM is 88.2%. On to `Cc1c(C(=O)O)c(-c2ccc(Cl)cc2)cn1CCO` [CBK286959], for which the viability at 28.5 h, 10 µM came out at 87%. Turning to `Cc1c(Cl)c([N+](=O)[O-])nn1CCCC(=O)Nc1sc2c(c1C#N)CCC(C(C)(C)C)C2` (stereo not shown) [CBK269111], the viability at 28.5 h, 10 µM stood at 108%. On to `O=C(CSc1nnc(-c2ccncc2)[nH]1)c1ccc(O)c(O)c1` [CBK264346], for which the viability at 28.5 h, 10 µM came out at 86.6%. The value for `c1cc2c(cc1CN1CCC(Oc3cncc(OCCN4CCOCC4)n3)C1)OCO2` (stereo not shown) [CBK084487] was 96.7%; that for `CN(C)C(=O)c1cccc(-c2nccnc2NCCO)c1` [CBK036582] was 90.3%; that for `CCOC(=O)Cn1nc(C)n2c(cc3sc(C)cc32)c1=O` [CBK284096] was 82.3%.

For the compound `O=C(NC1CCN(Cc2cc(F)cc(F)c2)CC1)c1cn2ccsc2n1` [CBK306970], the viability at 28.5 h, 10 µM was determined as 80%. `COc1ccc(CC(=O)N(C)CCN2CCCCC2)cc1C` [CBK282728]: the viability at 28.5 h, 10 µM was 99.3%. The result for `Cc1ccc(CC(C#N)Sc2nc(CN3CCOCC3)nc3ccccc23)cc1` (stereo not shown) [CBK298321] reads 82%. For the compound `COc1cc(NC(=S)P(=O)(c2ccccc2)c2ccccc2)c(OC)cc1Cl` [CBK021976], the viability at 28.5 h, 10 µM turned out to be 95.6%. `Nc1nnc(C(=O)c2cc(Br)ccc2N)s1` [CBK009811]: the viability at 28.5 h, 10 µM was 102%. The value for `CCN(CC(=O)Nc1ccc(OC)c(Cl)c1)S(=O)(=O)c1ccc2ccccc2c1` [CBK267910] was 92.9%; that for `O=C(O)c1cccc(NC(=O)c2cnc(-c3ccccc3)c(-c3ccco3)c2)c1` [CBK036710] was 93.4%.

Consider `COc1ccc(-n2nc3cc(C)c(NC(=O)c4ccc(-c5ccc([N+](=O)[O-])cc5OC)o4)cc3n2)cc1` [CBK263766], for which the viability at 28.5 h, 10 µM turned out to be 99.3%.

Regarding `O=S1(=O)CCC(SCc2ccccc2)C1` (stereo not shown) [CBK019237], the viability at 28.5 h, 10 µM is 89.1%. For the compound `Cc1nn(C)c(Cl)c1S(=O)(=O)Nc1cccc(-c2cnco2)c1` [CBK067107], the viability at 28.5 h, 10 µM amounted to 78.8%.

Take `CCOC(=O)C1(NC(=O)C2(Oc3cccnc3C)CCNCC2)CCC1` [CBK306688]: the viability at 28.5 h, 10 µM came to 89.9%. Take `Cc1noc(C)c1C(=O)N1CCCCCC1c1cnn(C)c1` (stereo not shown) [CBK284974]: the viability at 28.5 h, 10 µM was 98.8%. Take `Cc1cccnc1NC(=O)C(C)Oc1ccccc1` (stereo not shown) [CBK268643]: the viability at 28.5 h, 10 µM is 90.2%. For the compound `O=C(CCCn1ccnc1)NC(Cc1cccs1)c1nccs1` (stereo not shown) [CBK285094], the viability at 28.5 h, 10 µM came to 90.1%. As for `CCNC(=O)N1CCC[C@@H](O)[C@H](NC(=O)c2ccc(OCc3c(C)noc3C)cc2)C1` [CBK289068], the viability at 28.5 h, 10 µM is 84.2%. The result for `CCCc1[nH]nc(O)c1-c1cccc2ccccc12` [CBK075125] reads 94%; that for `COc1ccccc1N1CCN(c2ccc([N+](=O)[O-])cc2C(=O)O)CC1` [CBK286692], 96.3%; that for `C=C(C)CN1CCN(C(C(=O)O)c2c[nH]c3cc(F)ccc23)CC1` (stereo not shown) [CBK286835], 106%. Regarding `COc1cccc(CCN2C(=O)CC3(C2=O)C(=O)N(C)c2ccc(OC)cc23)c1` (stereo not shown) [CBK075191], the viability at 28.5 h, 10 µM worked out at 94.6%. On to `N[C@H]1C[C@H]2C(=O)NC[C@@H](CCC(=O)NCc3cccs3)N2C1` [CBK289005], for which the viability at 28.5 h, 10 µM came to 86.6%. As to `COc1cc([N+](=O)[O-])ccc1NC(=O)CS(=O)(=O)Cc1ccccc1` [CBK266704], the viability at 28.5 h, 10 µM was determined as 105%. The value for `Cc1cc(C)n2nc(C(=O)NCCCn3ccnc3C(C)C)nc2n1` [CBK307635] was 94%. For `CCCCOc1ccc(C(=O)N(C)c2ccc(CCC)cc2)cc1` [CBK161619], the viability at 28.5 h, 10 µM was 95.9%. With `CCC1(CC)OC(N[C@@H](C)c2ccc(Cl)cc2)=NC1=O` [CBK126666], the viability at 28.5 h, 10 µM came to 93.2%. For the compound `C=CCn1c(NCc2ccco2)nc2ccccc21` [CBK269751], the viability at 28.5 h, 10 µM was determined as 87.9%. Turning to `CCCC(=O)c1ccc(S(=O)(=O)N2CCN(Cc3ccc(F)c(C(F)(F)F)c3)CC2)cc1` [CBK063162], the viability at 28.5 h, 10 µM was 101%.

Turning to `CC(=O)NCCn1cc2c(n1)[C@H]1CN(C(=O)CC(C)C)C[C@H]1CC2` [CBK284572], the viability at 28.5 h, 10 µM came to 99.1%. The value for `COc1ccc([C@@]23CC[C@@H](NC(=O)Nc4cc(C)nc(C)c4)C[C@@H]2N(C)CC3)cc1OC` [CBK045876] was 90.9%. On to `COc1ccc(NC(=O)CSc2nsc(SCC(=O)Nc3ccc(OC)cc3)n2)cc1` [CBK008918], for which the viability at 28.5 h, 10 µM came to 92.5%.

For `O=C(NC1CC1)c1ccc(-n2cccn2)c(C#Cc2ccccn2)c1` [CBK282272], the viability at 28.5 h, 10 µM came out at 106%. Consider `COc1ccc(NC(=O)CC(C(=O)O)N2CCCCC2)cc1` (stereo not shown) [CBK267115], for which the viability at 28.5 h, 10 µM worked out at 101%. For the compound `CSCCCNC(=O)c1cnn2c(C)c(Cc3cccnc3)c(C)nc12` [CBK162164], the viability at 28.5 h, 10 µM is 104%. `CCc1nn2c(=O)cc(CNc3ccc4c(c3)OCCO4)nc2s1` [CBK297787]: the viability at 28.5 h, 10 µM is 99.2%. On to `CCC(C)(C)c1ccc(S(=O)(=O)N2CCCN(Cc3ccc4cccc(O)c4n3)CC2)cc1` [CBK063051], for which the viability at 28.5 h, 10 µM was determined as 90.5%.

On to `Cc1ccc(NC(=O)c2cncnc2)c(C)n1` [CBK200380], for which the viability at 28.5 h, 10 µM is 81.1%. Regarding `Cc1cc(C(=O)NCCn2nc(C)c(C)c2C)c2cccc(C)c2n1` [CBK281388], the viability at 28.5 h, 10 µM stood at 110%. Consider `O=S(=O)(c1ccc(OC(F)(F)F)cc1)N1CCc2ccccc21` [CBK044279], for which the viability at 28.5 h, 10 µM was determined as 96.7%. For `O=C(O)c1cc(-c2ccc(F)cc2)n[nH]1` [CBK267848], the viability at 28.5 h, 10 µM is 96.1%. Take `CCCC/C=C/c1cncc(NC2CCC(O)CC2)n1` (stereo not shown) [CBK037840]: the viability at 28.5 h, 10 µM is 105%. `Cc1[nH]c2ccccc2c1/C=N/c1cccc2c(/N=C/c3c(C)[nH]c4ccccc34)cccc12` [CBK261227]: the viability at 28.5 h, 10 µM turned out to be 97.6%. For `COCC(=O)Nc1nc2c(s1)C[C@]1(C)CC[C@@H]3[C@H](OC(=O)[C@H]3C)[C@H]1[C@@H]2C` [CBK289430], the viability at 28.5 h, 10 µM is 105%. `CNC(=S)Nc1ncn(Cc2cccc(F)c2)n1` [CBK288368]: the viability at 28.5 h, 10 µM was 106%. The value for `CS(=O)(=O)CCS(=O)(=O)N1CCOCC1c1cccc(F)c1` (stereo not shown) [CBK304111] was 84.2%; that for `COc1cc2c(cc1OC)CN(CC(O)COc1cccc3c1CCCC3)CC2` (stereo not shown) [CBK003828] was 113%.

For `FC(F)(F)c1ccc(CN2CCN(c3nccnc3OCC3COc4ccccc4O3)CC2)cc1` (stereo not shown) [CBK082789T], the viability at 28.5 h, 10 µM was 115%. For the compound `Cc1c(Cc2c(Cl)cccc2Cl)c(=O)n(C)n1C` [CBK113274], the viability at 28.5 h, 10 µM is 97.2%. Regarding `COc1ccc(C)cc1OCCO` [CBK001975], the viability at 28.5 h, 10 µM turned out to be 104%. As for `CC1CCCCN1CCNC(=O)c1ccc(Cn2c(=S)[nH]c3ccccc3c2=O)cc1` (stereo not shown) [CBK265674], the viability at 28.5 h, 10 µM stood at 96%. For `CC(C)(C)c1cc(N)c(C(N)=O)s1` [CBK016752], the viability at 28.5 h, 10 µM amounted to 91.3%. With `CC(=O)Nc1ccc(S(=O)(=O)Nc2ccc(C(=O)O)cc2)cc1` [CBK050427], the viability at 28.5 h, 10 µM was found to be 91.3%. The value for `O=C(O)/C=C(/CC(=O)O)C(=O)O` [CBK260936] was 102%. Turning to `CC(C)C(NS(=O)(=O)c1ccc(I)cc1)C(=O)O` (stereo not shown) [CBK268703], the viability at 28.5 h, 10 µM was 106%. The result for `CCOC(=O)N1CCN(C2CCCN(Cc3cnc(N(C)C)s3)C2)CC1` (stereo not shown) [CBK307041] reads 93.7%; that for `COCCN(Cc1cnn(C)c1)Cc1cc(O)c2cc(F)ccc2n1` [CBK307359], 103%.

Consider `CC1CN(C)c2ccccc2CN1C(=O)Cc1cn2ccsc2n1` (stereo not shown) [CBK306355], for which the viability at 28.5 h, 10 µM is 89.1%.
